One series has as its system Btk. The note with it: reported in the '853 application; read-out: IC50 in a pBTK assay; cited from earlier work.
The nature of series [1]: pKa via potentiometric titration. The series is classed as physicochemical. The source says:
Where this threshold is not met, non-ionic interactions (e.g., hydrogen bonds) can still occur between neutral acid and the base compounds to form, e.g., a co-crystal.

A short description of series [2]: DVS (dynamic vapor sorption) test. The series is classed as physicochemical. As for the experimental part:
DVS was measured via a SMS (Surface Measurement Systems) DVS Intrinsic. The relative humidity at 25° C. were calibrated against deliquescence point of LiCl, Mg(NO3)2 and KCl.

Structures are written as SMILES. Where only a bound is given, the exact number is not on record here.

Regarding `Cc1cc(-c2ccnc(Nc3cnn(C)c3)n2)ccc1CNC(=O)N1CC(OC(C)C)C1` [Compound 1, 3-isopropoxy-N-(2-methyl-4-(2-((1-methyl-1H-pyrazol-4-yl)amino)pyrimidin-4-yl)benzyl)azetidine-1-carboxamide], in the series on Btk, the IC50 was […]. This compound gave a pKa in series [1] of 3.31.
As to `Cc1cc(-c2ccnc(Nc3cnn(C)c3)n2)ccc1CNC(=O)N1CC(OC(C)C)C1` [Compound 2 Type II], the “form change after the DVS test (XRPD)” value in series [2] was “no form change”. Besides, in series [2] (25° C./80% RH), the “water uptake (DVS)” value was found to be 0.3%. Also, the hygroscopicity entry in series [2] (from DVS, 25° C./80% RH) is “slightly hygroscopic”.

In general, IC50 refers to the concentration that inhibits the measured activity by half. What is called pKa is the pH at which an ionisable group is half protonated.

The values are drawn from patent US20180179189A1, “ADIPATE FORMS AND COMPOSITIONS OF BIARYL INHIBITORS OF BRUTON'S TYROSINE KINASE” (BIOGEN MA INC., priority 2015, published 2018).
